According to patent US11136283B2, “Recovering and purifying resveratrol produced by microbial fermentation” (EVOLVA SA, priority 2017, dated 2021):
Values joined by “and” are separate entries in the source; they are usually repeats but may differ in a detail not shown here. Equal values may be shown once.

Assay: Stability of resveratrol in ultrafiltration filtrates concentrated by reverse osmosis and held at pH 11
Type: physicochemical
Conditions: held at pH 11 for 3 to 7 days at 5° C. to 8° C., at production vs 7 days after
Description: It is advantageous for process intermediate materials to have a high degree of stability, so that they can be processed over time without the need for immediate processing on equipment with high capacity. The various filtrates from the ultrafiltration tests were concentrated by reverse osmosis and held at pH 11 for 3 to 7 days at 5° C. to 8° C. to evaluate their stability. The product decomposition is a comparison between the composition at the time of production and that measured 7 days after production. The stability improved monotonically as the molecular weight cutoff of the ultrafilter was decreased from 100 kDa to 25 kDa to 5 kDa. 11%, 7%, and 5% of the resveratrol was decomposed in the respective tests.

Product Decomposition (filtrate from GR40PP 100 kDa ultrafilter, broth EFSC4687): 11.5%
Product Decomposition (filtrate from GR40PP 100 kDa ultrafilter, broth EFSC 21811): 11% and 10.7%
Product Decomposition (filtrate from GR60PP 25 kDa ultrafilter): 7%
Product Decomposition (filtrate from GR90PP 5 kDa ultrafilter): 5%
SMILES: Oc1ccc(/C=C/c2cc(O)cc(O)c2)cc1 [resveratrol, 3,5,4′-trihydroxy-trans-stilbene]
